Experimental data as given in US20180221306A1, “PHARMACEUTICAL COMPOSITIONS OF 5-HYDROXY-2-METHYLNAPHTHALENE-1,4-DIONE” (PellFiCure Pharmaceuticals, Inc., priority 2016, published 2018).
Marks after values point to notes of the source that are not given here.

Experiments:
[1] = test system: PTEN-P2/H2B-GFP mouse prostate cancer cells; experiment: IVM pseudo-orthotopic prostate chamber model, tumor size
Protocol: Male Nude mice (25-35 g body weight) are anesthetized (7.3 mg ketamine hydrochloride and 2.3 mg xylazine/100 g body weight, i.p.) and placed on a heating pad. Two symmetrical titanium frames are implanted into a dorsal skinfold, so as to sandwich the extended double layer of skin. A 15 mm full thickness circular layer is excised. The underlying muscle (M. cutaneous max.) and subcutaneous tissues are covered with a glass coverslip incorporated in one of the frames. After a recovery period of 2-3 days, prostate tissue and cancer cell spheroids are carefully placed in the chamber. Small circular Band Aids are applied on the backside of the chamber after surgery to prevent scratching. Before surgery, Buprenorphine (0.1 mg/kg) is given IP. After surgery Meloxicam is given in the drinking water for 4 days Meloxicam (5.0 mg/ml), is added at 35 μl per 100 ml of water to be medicated.
Mice are anesthetized with 7.3 mg ketamine hydrochloride and 2.3 mg xylazine/100 g body weight, i.p. A lateral incision across the scrotum is made and the testes are individually ligated and excised. The wound is cauterized. The incision is then sutured and sealed with Nexaband® acrylic.
Preparation of tumor spheroids: Liquid overlay plates were generated using 1% molecular biology grade agarose melted in cell culture medium and plated in round bottom 96 well plates at 50 ul/well. Tumor cells grown as pre-confluent monolayers were trypsinized and diluted to a final volume of 1,000,000 cells/ml. Viability was determined by Trypan blue. Cells were placed onto the cooled agarose (70 μl/well) and allowed to compact into spheroids for 24 hours. The spheroids were picked with a pipette and transferred into serum-free media for implantation in the chambers.
IntraVital Microscopy (IVM) can be used to visualize tumors in animals and analyze various aspects of cancer physiology such as tumor vascularization, cell migration and metastasis. An advantage of IVM includes the real-time analysis of dynamic processes with single-cell resolution. IntraVital microscopy offers the possibility to follow tumor growth in a non-invasive, non-destructive manner. The application of IVM can be limited to animal models that bear visually accessible tumors. Therefore, the dorsal skinfold chamber model described above can be compatible with IVM. Using IVM can permit a number of parameters to be measured in living animals and as a function of time, including tumor growth, angiogenesis, infiltration by immune cells, tumor cell migration, mitosis (cell-division) and apoptosis (programmed cell death), all in the context of the host and in real time.
Unless otherwise indicated, Compound I was administered by oral gavage in a sesame oil (Carrier A) formulation. Compound I was dissolved in DMSO then in oil at a concentration of 0.25 mg/ml (weight/volume) with a final DMSO concentration of 0.5% (vol/vol), and administered to mice at 1 mg/kg. In some experiments, Compound I dissolved in a mixture of poly-ethylene glycol/DMSO 30% (w/v) was administered via intra-peritoneal injection.
The efficacy of the formulation of Compound I in Carrier A for oral administration was compared to the previous formulation of Compound I in poly-ethylene glycol (PEG) for intra-peritoneal injection (i.p.). These experiments were performed using Intra Vital Microscopy (IVM) in a pseudo-orthotopic prostate chamber model in which minced prostate tissue is grafted in chambers surgically placed in the dorsal skinfold of mice, and allowed to vascularize. Small tumor cells spheroids were then placed on the prostate tissue, creating a biologically relevant prostatic environment. The tumor cells that express fluorescent H2B-GFP and can be detected in situ and in real-time through the microscopy window of the dorsal chamber.
Epithelial cell lines derived from the prostate tumor of a PTEN-null mouse were used. Mouse prostate cancer cells PTEN-P2 are heterozygous for PTEN deletion and do express protein PTEN.

[2] = Forced degradation: solution stability in aqueous media (HPLC)

## CC1=CC(=O)c2c(O)cccc2C1=O [Compound I, 5-hydroxy-2-methylnaphthalene-1,4-dione]
[1]; 3 and 10 mg/kg/day in oil, oral, castrated mice
  Tumor regression at higher doses: no improvement over the dose of 1 mg/kg/day
[1]; Compound I administered orally in combination with surgical castration
  Combination efficacy: Yes
[1]; Compound I in Carrier A orally 1 mg/kg/day with degarelix
  Shrinkage of the tumors: approximately 50%
[1]; Compound I in Carrier A orally with abiraterone/prednisone
  Tumor size relative to the starting size: less than 60%
[1]; Compound I in Carrier A orally with bicalutamide
  Effect on tumor size: did not result in a reduction of initial tumor size
[1]; Compound I in Carrier A orally with dutasteride
  Shrinkage of the tumor size: approximately 30%
[1]; Compound I in Carrier A orally with enzalutamide
  Effect on tumor size: did not result in a reduction in tumor size
[1]; Compound I in Carrier A orally with orteronel
  Tumor size relative to the starting size: less than 60%
[1]; Compound I in PEG, i.p. 1 mg/kg/day, castrated mice, p<0.001
  Decrease of tumor sizes: 50%
[1]; combination of bicalutamide with Compound I
  Effectiveness vs drug alone: no more effective than treatment with the drug alone
[1]; combination of enzalutamide with Compound I
  Effectiveness vs drug alone: no more effective than treatment with the drug alone
[1]; combination of leuprolide and the oral formulation of Compound I
  Effect on tumor size: caused the tumors to shrink
[1]; combination of the oral formulation of Compound I and leuprolide
  Tumor flare vs leuprolide alone: shorter and of lesser amplitude
[1]; combination with 2 mg/kg dutasteride
  Efficiency vs combination with surgical castration: nearly as efficient as the combination of Compound I with surgical castration
[1]; combination with abiraterone/prednisone vs abiraterone/prednisone
  Efficiency vs chemical ADT by itself: more efficient
[1]; combination with abiraterone/prednisone, comparator printed as combination of Compound I and abiraterone/prednisone
  Shrinkage vs comparator combination: more shrinkage of tumors
[1]; combination with degarelix
  Shrinkage vs combination of Compound I and castration: more shrinkage of tumors
[1]; combination with degarelix vs degarelix
  Efficiency vs chemical ADT by itself: more efficient
[1]; combination with dutasteride at 2, 0.3, 0.1, 0.03 mg/kg
  Dose dependence of tumor regression: tumor regression proportionally to the dose of dutasteride
[1]; combination with dutasteride vs dutasteride, p<0.001
  Efficiency vs chemical ADT by itself: more efficient
[1]; combination with orteronel
  Shrinkage vs combination of Compound I and castration: more shrinkage of tumor size
[1]; combination with orteronel vs orteronel
  Efficiency vs chemical ADT by itself: more efficient
[1]; leuprolide plus Compound I orally 1 mg/kg/day, p=0.014 between treatments
  Maximum tumor size reached, relative to initial tumor size: 120%
[1]; lower doses than 1 mg/kg/day (FIG. 3B), oral in Carrier A, castrated mice
  Tumor regression at lower doses: less efficient at causing tumor regression
[1]; mice, up to 10 mg/kg/day for 21 days, no changes in whole body weights or animal behavior
  Tolerability of oral administration: well tolerated
[1]; oil formulation, oral, castrated mice
  Dose of optimal effect: 1 mg/kg/day
[1]; oral 1 mg/kg/day in Carrier A, castrated mice
  Tumor regression, oral formulation versus i.p. formulation: as effectively as i.p. injection of 1 mg/kg Compound I in PEG
[1]; see Example 5
  Dose at which Compound I was maximally effective: 1 mg/kg
[2]; pH 1, 50% DMSO, 25° C./60% RH, t = 0
  Solution Stability in Aqueous Media, Purity: 99.32 % Area
[2]; pH 1, 50% DMSO, 25° C./60% RH, t = 1 week
  Solution Stability in Aqueous Media, Purity: 98.83 % Area
[2]; pH 1, 50% DMSO, 25° C./60% RH, t = 2 week
  Solution Stability in Aqueous Media, Purity: 98.73 % Area
[2]; pH 1, 50% DMSO, 40° C./75% RH, t = 1 week
  Solution Stability in Aqueous Media, Purity: 98.12 % Area
[2]; pH 1, 50% DMSO, 40° C./75% RH, t = 2 week
  Solution Stability in Aqueous Media, Purity: 95.79 % Area
[2]; pH 2, 50% DMSO, 25° C./60% RH, t = 0
  Solution Stability in Aqueous Media, Purity: 98.83 % Area
[2]; pH 2, 50% DMSO, 25° C./60% RH, t = 1 week
  Solution Stability in Aqueous Media, Purity: 98.48 % Area
[2]; pH 2, 50% DMSO, 25° C./60% RH, t = 2 week
  Solution Stability in Aqueous Media, Purity: 96.90 % Area
[2]; pH 2, 50% DMSO, 40° C./75% RH, t = 1 week, precipitation observed
  Solution Stability in Aqueous Media, Purity: 93.43^‡ % Area
[2]; pH 2, 50% DMSO, 40° C./75% RH, t = 2 week, precipitation observed
  Solution Stability in Aqueous Media, Purity: 85.79^‡ % Area
[2]; pH 3, 50% DMSO, 25° C./60% RH, t = 0
  Solution Stability in Aqueous Media, Purity: 98.85 % Area
[2]; pH 3, 50% DMSO, 25° C./60% RH, t = 1 week
  Solution Stability in Aqueous Media, Purity: 97.09 % Area
[2]; pH 3, 50% DMSO, 25° C./60% RH, t = 2 week
  Solution Stability in Aqueous Media, Purity: 95.26 % Area
[2]; pH 3, 50% DMSO, 40° C./75% RH, t = 1 week
  Solution Stability in Aqueous Media, Purity: 88.81 % Area
